“Also recorded” adds a separate entry of the source.
Columns and labels:
MDA-MB-468 cells [1] = assay: Cell based ROS scavenging assay; settings: then RB4 10 μM 1 h, US 1 MHz, 1 W/cm^2, 30 s, MTS one day later; for protective effect of ROS scavenger: scavenger pretreatment 30 min
Method: Ceil based ROS scavenging assay: MDA-MB-468 cells (5×10^4) were treated with free radical scavengers, L-histidine (10 mM), D-mannitol (100 mM), N-acetyl cysteine (NAC, 0.5 mM), and superoxide dismutase (SOD, 100 μg/mL) for 30 minutes. The treated cells were then incubated with fresh media containing RB4 (10 μM) for an hour. After incubation, the wells were insonated (1 MHz, 1 W/cm^2, 30 sec, 100% DC) as described above. One day later, the cell's viability was assessed using the MTS solution.

MDA-MB-468 cells [2] = assay: Mechanistic study of death process by flow cytometry (Annexin V / propidium iodide); type: cell-based; settings: RB4 10 μM + US 1 MHz, 1 W/cm^2, 30 s; one day after treatment
Method: Mechanistic study of death process by flow cytometry: MDA-MB-468 cells (5×10^4) were incubated in complete media with or without 10 μM RB4 for 1 hour prior to ultrasound treatment. Then the plates were insonated at 1 MHz, 1 W/cm^2, 30 sec, 100% duty cycle. Following treatment, cells were re-incubated for 1 day, 4 groups of cells (Control, RB4 alone, ultrasound alone, and RB4 combined with ultrasound) were collected and washed twice with pre-cooled PBS. Cells were stained with FITC-conjugated Annexin-Y and propidium iodide for 15 minutes as per the manufacture's instructions, and then analyzed by flow cytometry. The percentage of dead cells and those undergoing apoptosis were analyzed using flow ‘cytometry’ analysis software.

HT1080, fibrosarcoma = assay: Sono-sensitivity of RB4 in a second cell line; type: cell-based; settings: RB4 + ultrasound
[3] = Absorption and emission spectra; type: physicochemical
MDA-MB-468 cells [4] = assay: Sonotoxicity with RB4: microscopy and MTS viability assay at 24 hours; type: cell-based
Method: Sonotoxicity with RB4: MDA-MB-468 ceils (5×10^4) in 24 well plates were incubated in complete media with 10 μM RB4 for 1 hour prior to the ultrasound treatment. The plates were then placed on a pre-cut gel pad (2 cm×3 cm) with multipurpose ultrasound gel over a mounted handheld ultrasound transducer (5 cm^2) at 1 MHz, 1 W/cm^2 for 30 s, 100% DC. Cells were checked under an EVOS® FL Auto Cell Imaging system microscope. Cell viability at 24 hours was quantitated using an MTS assay. The plate was incubated at 37° C. for 4 hours. Absorbance was measured at 490 nm using a microplate reader.

HT-1080 = assay: Toxicity of RB4 to cells (IC50); type: cell-based; settings: Homo sapiens, RB4 alone
[5] = system: MDA-MB-468 xenograft tumor; assay: In vivo SMRT effect with intra-tumoral injected RB4, histochemical analysis; set-up: species or system BALB/c Nu/Nu female nude mice; settings: two days after treatment
Method: (§1) In vivo SMRT effect with intra-tumoral injected RB4: MDA-MB-468 cells (10^7, 0.1 mL PBS) were subcutaneously inoculated into both flanks of BALB/c Nu/Nu female nude mice (5-6 weeks). The RB4 injections and ultrasound therapies were performed when the tumors had grown to approximately 4-5 mm in diameter, 20-22 days after inoculation. The tumors were treated with RB4 (10 μM, 50 μl) only, ultrasound only (1 MHz, 1 W cm2, 100% DC, 3 minutes), and a RB4-ultrasound combination (n=5), Under isoflurane anesthesia, RB4 was directly injected to the tumors of the mice. The ultrasound treatment was then performed immediately after the injection of RB4, with same transducer size. The same RB4-ultrasound treatment was performed on the thigh muscles of the mice. Histochemical analysis: Tumors and muscle tissue were harvested 2 days after therapy and the specimens were fixed in 10% formalin, cut in half, and embedded in paraffin. The paraffin sections (7 μm thick) were stained with hematoxylin-eosin (H&E). ImageJ 1.48 was used to measure the size of whole tumor and necrotic areas in the tumors.

[6] = system: MDA-MB-468 breast cancer xenograft tumor; assay: In vivo SMRT effect using preloaded tumor cells
Method: In vivo sono-membrane rupture therapy (SMRT) effect using preloaded tumor cells: MDA-MB-468 cells were suspended in PBS or RB4 (10 μM) in PBS for 1 day. The cells (5×10^6, 0.1 mL) were subcutaneously injected into both flanks. The left tumors, which were only treated with PBS, were the internal control; while the right tumors were treated with RB4 (10 μM) only, ultrasound only (1 MHz, 1 W/cm^2, 100% DC, 3 minutes), or an RB4-ultrasound combination (n=7). The transducer size was 0.75 cm^2. Tumor size was measured with slide calipers on days 7,10, 14,17,21,24, 28, and 36.

[7] = system: thigh muscle (normal muscle tissue); assay: Same RB4-ultrasound treatment on thigh muscle, histochemical analysis; type: in vivo, BALB/c Nu/Nu female nude mice; settings: RB4 + US 1 MHz, 1 W/cm^2, 3 min applied to thigh muscle; two days after treatment
Method: as §1

MDA-MB-468 = assay: Toxicity of RB4 to cells (IC50); type: cell-based; settings: Homo sapiens, RB4 alone
[8] = Chemical ROS assay (DCFH-DA) in solution under insonation; settings: RB4 + DCFH solution insonated with different ultrasound powers, 30 s
Method: Chemical ROS assay: To study the insonation induced ROS generation in solution, RB4 was tested using a modified 2′, 7′-dichlorofluorescin diacetate (DCFH-DA) assay. DCFH-DA (1 ml, 1 mM in MeOH) was hydrolyzed in NaOH aqueous solution (0.01N, 4 mL) at RT for 30 minutes to yield anon-fluorescent DCFH intermediate. The solution was neutralized with 20 mL of NaH2PO4 (25 mM) and shielded with aluminum foil. The final solution of DCFH was around 40 μM. RB4 (1.0 mg) was dissolved in DMSO (1 mL) and then diluted with water into a 20 μM solution. The RB4 solution (20 μM, 10 mL) was mixed with a DCFH solution (40 μM, 10 mL) as the test solution. The test solution (0.5 mL) was placed into each well of a 24-well plate. The DCFH solution without RB4 was included as a background control. The plates were treated with ultrasound (0.4-1.2 watt/cm^2) one well by one well for 30 seconds: and the insonated wells were then checked using a fluorescence plate reader, ex 485 nm/em 520 nm.

In the case of `OC[C@@H](O)[C@@H](O)[C@H](O)[C@H](O)CO` [D-mannitol], the “protective effect of ROS scavenger” value (MDA-MB-468 cells [1]) is reported as “none, with the exception of NAC, showed any protective effects”.

With `N[C@@H](Cc1c[nH]cn1)C(=O)O` [L-histidine] the “protective effect of ROS scavenger” value (MDA-MB-468 cells [1]) was “none, with the exception of NAC, showed any protective effects”.

In the case of `CC(=O)N[C@@H](CS)C(=O)O` [NAC, N-acetyl cysteine], the “fraction of cells rescued from RB4 and ultrasound combination treatment” value (MDA-MB-468 cells [1]; scavenger pretreatment 30 min (NAC 0.5 mM)) is reported as ~20% and the “protective effect of ROS scavenger” value (MDA-MB-468 cells [1]) is reported as “able to rescue a fraction of cells”.

For `O=C(NCCO)c1c(Cl)c(Cl)c(Cl)c(Cl)c1-c1c2cc(I)c(=O)c(I)c-2oc2c(I)c(O)c(I)cc12` [RB4, 2,3,4,5-tetrachloro-6-(6-hydroxy-2,4,5,7-tetraiodo-3-oxo-3H-xanthen-9-yl)-N-(2-hydroxyethyl)-benzamide], the PI positive cells (MDA-MB-468 cells [2]) was 3%, the annexin positive cells (MDA-MB-468 cells [2]) was 8% and the “annexin/PI double positive cells” value (MDA-MB-468 cells [2]) was 36%. For the same molecule, the cells killed (HT1080, fibrosarcoma) was 95%, the “absorption and emission (in words)” value [3] was “neither absorption nor emission above 400 nm” and the cells killed (MDA-MB-468 cells [4]; RB4 10 μM 60 min + ultrasound 1 MHz, 1 W/cm^2, 30 s, viability one day later) was “over 90%”. The “cell damage in microscopic images” value (MDA-MB-468 cells [4]; RB4 10 μM + ultrasound 1 MHz, 1 W/cm^2, 30 s) was “significant damage”, the cell viability (MDA-MB-468 cells [4]; RB4 alone 10 μM, 60 min, no ultrasound, MTS one day later) was > 80 % viable and the “cell damage in microscopic images” value (MDA-MB-468 cells [4]; RB4 alone 10 μM, versus untreated) was “Little difference”. The IC50 (HT-1080) was 157 µM, the necrotic area ([5]; RB4 50 μL, 10 μM intratumoral + US 1 MHz, 1 W/cm^2, 3 min) was ~40% and the “necrosis on HE staining (in words)” value ([5]; RB4 50 μl, 10 μM intratumoral + US 1 MHz, 1 W/cm^2, 3 min) was “A large necrotic area”. For the same molecule, the “tissue damage on HE staining (in words)” value ([5]; RB4 alone 50 μl, 10 μM intratumoral) was “Little effect; also recorded: little tissue damage”, the “tumor growth inhibition (in words)” value ([6]; RB4 10 μM + US 1 MHz, 1 W/cm^2, 3 min, N=7) was “significant growth arrest” and the “average tumor size relative to control untreated tumor” value ([6]; RB4 10 μM preloaded cells + US 1 MHz, 1 W/cm^2, 3 min, up to 36 days) was “about 20%”. For the same molecule, the “tumor growth inhibition (in words)” value ([6]; RB4 alone 10 μM) was “about the same as the untreated group; also recorded: no appreciable inhibition effect”, the “growth rate ratio of treated vs. untreated tumors” value ([6]; RB4 alone (cells pre-incubated with 10 μM for 1 day), up to 36 days) was “≈ 1” and the “damage to normal muscle tissue” value [7] was “maintained their normal structures without damage; also recorded: no damaged cells were found”. For the same molecule, the IC50 (MDA-MB-468) was 71 µM and the “ROS level of RB4 solution” value [8] was “not significantly different from the background level”.

`O=C1OC2(c3cc(I)c(O)c(I)c3Oc3c2cc(I)c(O)c3I)c2c(Cl)c(Cl)c(Cl)c(Cl)c21` [RB, Rose Bengal] gave an absorption maximum [3] of 549 nm and an emission maximum [3] of 565 nm.

With superoxide dismutase the “protective effect of ROS scavenger” value (MDA-MB-468 cells [1]) was “none, with the exception of NAC, showed any protective effects”.

Source: US11975071B2, “Tumor ablation using low-intensity ultrasound and sound excitable drug” (CORNELL UNIVERSITY, priority 2018, dated 2024)
